The test system of one series is MV-4-11 cells. The experiment in a line: Antiproliferative activity against MV-4-11 cells (CTG method, 72 h). The conditions noted are these: Homo sapiens, MV4-11, 72 hours incubation, CellTiter-Glo. The class given is cell-based. An excerpt: • 1. Experimental Principle: MV-4-11 is a human leukemia cell line harboring MLL translocation and expressing the MLL fusion protein MLL-AF4. […] Experimental Materials: CellTiter-Glo was purchased from Promega (Cat. #G7571); IMDM medium was purchased from Gibco (Cat. #12440061); fetal bovine serum was purchased from Excell (Cat. #FND500); dimethyl sulfoxide (DMSO) was purchased from Sigma (Cat. #D2650); 384-well cell culture plates were purchased from Corning (Cat. #3756); automated cell counter was obtained from Life Technologies (Model: Countess II); microplate reader was obtained from PerkinElmer (Model: EnVision Multilabel Reader). • 3. Experimental Methods: Cells in logarithmic growth phase were resuspended in growth medium (IMDM + 10% FBS) and diluted to the target density (50,000/mL). The cell suspension was seeded into 384-well plates at 50 µL per well and incubated overnight at 37°C in a 5% CO2 incubator.
Test compounds were dissolved in DMSO to prepare 10 mM stock solutions. The stock solutions were first diluted to 2 mmol/L with DMSO, followed by 3-fold serial dilutions to generate 10 concentrations. From each concentration, 5.5 µL was diluted with 94.5 µL growth medium. The diluted solutions were then added to the 384-well plates containing seeded cells at 5 µL per well.
Cells treated with test compounds were incubated at 37°C in a 5% CO2 incubator for 72 hours. The 384-well plates were equilibrated at room temperature, and 15 µL of CellTiter-Glo reagent was added to each well. The plates were mixed on a vortex mixer for 2 minutes and incubated at room temperature for 60 minutes. Luminescence values were read using the EnVision Multilabel Reader, and IC50 values were calculated using GraphPad Prism 5.0 software.
A general note: Cellular ATP, detected with luciferase, serves as a proxy for viable cell number.

For series [1], the system named is MV-4-11 subcutaneous tumor xenograft. The series can be described thus: In vivo efficacy in subcutaneous MV-4-11 tumor xenograft model. Also on record: species or system female NOD/SCID mice. The conditions noted are these: oral gavage once daily, tumor volume, Figure 1. An excerpt:
• 1. Objective: To evaluate the in vivo efficacy of test compounds in a subcutaneous MV-4-11 tumor xenograft model in female NOD/SCID mice. • 2. Experimental Materials: The test compound was Compound 3 prepared according to the examples of the present invention; the positive control compound SNDX-5613 was purchased from Chengdu Zhihui Zhongxin Biomedical Co., Ltd.; MV-4-11 cells were purchased from Nanjing Cobioer; NOD/SCID mice were purchased from Beijing Vital River Laboratory Animal Technology Co., Ltd. • 3. Experimental Methods: Female NOD/SCID mice, 6-8 weeks of age, weighing 16-22 g, were used. MV-4-11 cells were cultured in IMDM medium supplemented with 20% fetal bovine serum. Cells in exponential growth phase were harvested, resuspended in phosphate-buffered saline, and prepared as a cell suspension at a density of 1 × 10^7 cells/0.1 mL. Cells were subcutaneously inoculated into the right dorsal neck region of each mouse (1 × 10^7 cells/mouse) with 50% Matrigel. When the mean tumor volume reached approximately 50-100 mm^3, mice were randomized and treatment was initiated by oral gavage administration once daily. Tumor diameters were measured twice weekly using digital calipers. Tumor volume was calculated using the formula: V = 0.5 × a × b^2, where a and b represent the longest and shortest tumor diameters, respectively.

The nature of series [2]: Pharmacokinetics in mice after single IV and PO administration (LC-MS/MS). The conditions noted are these: ICR mice. Format: in vivo, male ICR mice. As for the experimental part: • 1. Objective: This study aimed to characterize the pharmacokinetic properties of selected compounds from the examples of the present invention in male ICR mice following single intravenous (IV) injection and oral (PO) administration using LC-MS/MS methodology. • 2. Experimental Materials: Test compounds were prepared according to the examples of the present invention; male ICR mice were obtained from Shanghai Jihui Laboratory Animal Breeding Co., Ltd. (License No. SCXK(Shanghai)2022-0009). • 3. Experimental Methods: Preparation of 0.5% methylcellulose (pH = 4.91): 5 g of methylcellulose was weighed and dissolved in 1000 mL of purified water, and the pH was adjusted to 4.91 with 100 mM citric acid.
Preparation of oral formulations: The required amount of test compound was weighed and dissolved in 0.5% methylcellulose (pH = 4.91) solution to obtain a suspension or solution at 3 mg/mL.
Preparation of intravenous injection formulations: The required amount of test compound was weighed and dissolved in 0.5 mL dimethyl sulfoxide to prepare a 12 mg/mL solution. To 0.25 mL of this solution, 0.5 mL of polyethylene glycol 15-hydroxystearate (Solutol) and 4.25 mL of normal saline were added to obtain a 0.6 mg/mL solution.
Dosing: Male ICR mice were fasted overnight prior to oral (PO) administration; fasting was not required for the single intravenous (IV) injection group. Food was provided 4 hours post-dosing.
Sample Collection: Blood was collected from the jugular vein or other suitable veins, with 0.03 mL collected at each time point. Samples were placed in tubes containing dipotassium ethylenediaminetetraacetate and kept on ice prior to centrifugation. Within 1 hour of blood collection, samples were centrifuged at 6800 × g for 6 minutes at 2-8°C and stored at -80°C. Blood sampling time points for intravenous administration were 0.083, 0.25, 0.5, 1, 2, 4, 8, 24, and 32 hours post-dosing. Blood sampling time points for oral administration were 0.25, 0.5, 1, 2, 4, 8, 24, and 32 hours post-dosing.

Molecules are shown by their SMILES. Read-outs that look alike come from different tables or passages of the source.

One may read the IC50 as the concentration that gives 50% inhibition. A low value points to greater potency in that assay. As a reminder, the AUC(0-t) is exposure summed from dosing to a finite time, without extrapolation to infinity. In general, Cmax refers to the maximum level reached in the sampled fluid or tissue.

`CCN(C(=O)c1cc(F)ccc1N1CCN([C@@H]2CCN([C@H](CCCN(C)CCOC)C(C)C)C2)c2ncncc21)C(C)C` [Example 3] returned an IC50 with MV-4-11 cells of 0.0229 µM. Moreover, in series [1], the “efficacy in MV-4-11 subcutaneous tumor xenograft model” value was “superior efficacy compared to the positive control SNDX-5613”. In addition, the “PO F” value in series [2] (PO 30 mg/kg vs IV 3 mg/kg) came to 25.6%. In addition, the AUC(0-t) turned out to be 0.429 µg·h/mL in series [2] (mouse, in vivo, IV 3 mg/kg, read-out: IV AUC(0-t)) and 1.1 µg·h/mL in series [2] (mouse, in vivo, PO 30 mg/kg, 0.5% methylcellulose (pH = 4.91), read-out: PO AUC(0-t)). The clearance in series [2] (mouse, in vivo, IV 3 mg/kg, read-out: IV CL) stood at 6.24 L/h/kg. In addition, the highest concentration (Cmax) in series [2] (mouse, in vivo, IV 3 mg/kg, read-out: IV Cmax) was determined as 0.418 µg/mL; in series [2] (mouse, in vivo, PO 30 mg/kg, 0.5% methylcellulose (pH = 4.91), read-out: PO Cmax), 0.293 µg/mL. The Vd in series [2] (mouse, in vivo, IV 3 mg/kg, read-out: IV Vss) is 65.1 L/kg. Besides, the half-life in series [2] (mouse, in vivo, IV 3 mg/kg, read-out: IV t1/2 (converted)) is 10.9 h; in series [2] (mouse, in vivo, PO 30 mg/kg, 0.5% methylcellulose (pH = 4.91), read-out: PO t1/2 (converted)) it was 6.49 h.
